For one assay, the target named is Fatty acid synthase (Gallus gallus, UniProt P12276). Briefly: Inhibition of Fatty acid synthase in chicken liver using [3H]-acetyl CoA as substrate preincubated for 30 mins followed by substrate addition and measured after 10 mins in presence of NADPH by scintillation counting analysis. It is filed as tissue-based.
A further assay relates to K562. Briefly: Cytotoxicity against human K562 cells by colorimetric assay. It is filed as functional, cell-based.
For the next assay, the system named is HeLa S3. As to the kind of experiment: Cytotoxicity against human HeLa S3 cells. The settings on record: Homo sapiens, HeLa S3; read-out: IC50. It is filed as functional, cell-based.
Another assay concerns A549. As to the kind of experiment: Cytotoxicity against human A549 cells incubated for 72 hrs by MTT assay. It is filed as functional, cell-based. The settings on record: A549, 72 h.
In another assay the test system is DU-145. As to the kind of experiment: Cytotoxicity against human DU-145 cells assessed as reduction in cell viability incubated for 48 hrs by MTS assay. The settings on record: DU-145, time 48 hrs. The class given is functional, cell-based. On the technique in general: Formazan colour is commonly taken as a measure of viable cells.
Another assay deals with JIMT-1. Briefly: Cytotoxicity against human JIMT-1 cells assessed as reduction in cell viability incubated for 48 hrs by MTS assay. It is filed as functional, cell-based. The settings on record: JIMT-1, time 48 hrs.
The next assay concerns MIA PaCa-2. As to the kind of experiment: Cytotoxicity against human MIA PaCa-2 cells assessed as reduction in cell viability incubated for 48 hrs by MTS assay. It is filed as functional, cell-based. The settings on record: MIA PaCa-2, time 48 hrs.
For another assay, the system named is PC-3. Briefly: Cytotoxicity against human PC-3 cells assessed as reduction in cell viability incubated for 48 hrs by MTS assay. The class given is functional, cell-based. The settings on record: PC-3, time 48 hrs.
For the next assay, the system named is BT-474. Briefly: Cytotoxicity against human BT-474 cells assessed as reduction in cell viability incubated for 48 hrs by MTS assay. It is filed as functional, cell-based. The settings on record: BT-474, time 48 hrs.

In general, pIC50 refers to the negative decadic logarithm of the IC50, by convention in mol/L. One may read the IC50 as the concentration needed to halve the response being measured. As usually defined, the CC50 is the concentration at which the toxic effect on the cells reaches its halfway point.

pIC50: −log10 of the molar value. ≈ marks a conversion by molar mass, not a printed value.

Chain of Fatty acid synthase (P12276 whole entry): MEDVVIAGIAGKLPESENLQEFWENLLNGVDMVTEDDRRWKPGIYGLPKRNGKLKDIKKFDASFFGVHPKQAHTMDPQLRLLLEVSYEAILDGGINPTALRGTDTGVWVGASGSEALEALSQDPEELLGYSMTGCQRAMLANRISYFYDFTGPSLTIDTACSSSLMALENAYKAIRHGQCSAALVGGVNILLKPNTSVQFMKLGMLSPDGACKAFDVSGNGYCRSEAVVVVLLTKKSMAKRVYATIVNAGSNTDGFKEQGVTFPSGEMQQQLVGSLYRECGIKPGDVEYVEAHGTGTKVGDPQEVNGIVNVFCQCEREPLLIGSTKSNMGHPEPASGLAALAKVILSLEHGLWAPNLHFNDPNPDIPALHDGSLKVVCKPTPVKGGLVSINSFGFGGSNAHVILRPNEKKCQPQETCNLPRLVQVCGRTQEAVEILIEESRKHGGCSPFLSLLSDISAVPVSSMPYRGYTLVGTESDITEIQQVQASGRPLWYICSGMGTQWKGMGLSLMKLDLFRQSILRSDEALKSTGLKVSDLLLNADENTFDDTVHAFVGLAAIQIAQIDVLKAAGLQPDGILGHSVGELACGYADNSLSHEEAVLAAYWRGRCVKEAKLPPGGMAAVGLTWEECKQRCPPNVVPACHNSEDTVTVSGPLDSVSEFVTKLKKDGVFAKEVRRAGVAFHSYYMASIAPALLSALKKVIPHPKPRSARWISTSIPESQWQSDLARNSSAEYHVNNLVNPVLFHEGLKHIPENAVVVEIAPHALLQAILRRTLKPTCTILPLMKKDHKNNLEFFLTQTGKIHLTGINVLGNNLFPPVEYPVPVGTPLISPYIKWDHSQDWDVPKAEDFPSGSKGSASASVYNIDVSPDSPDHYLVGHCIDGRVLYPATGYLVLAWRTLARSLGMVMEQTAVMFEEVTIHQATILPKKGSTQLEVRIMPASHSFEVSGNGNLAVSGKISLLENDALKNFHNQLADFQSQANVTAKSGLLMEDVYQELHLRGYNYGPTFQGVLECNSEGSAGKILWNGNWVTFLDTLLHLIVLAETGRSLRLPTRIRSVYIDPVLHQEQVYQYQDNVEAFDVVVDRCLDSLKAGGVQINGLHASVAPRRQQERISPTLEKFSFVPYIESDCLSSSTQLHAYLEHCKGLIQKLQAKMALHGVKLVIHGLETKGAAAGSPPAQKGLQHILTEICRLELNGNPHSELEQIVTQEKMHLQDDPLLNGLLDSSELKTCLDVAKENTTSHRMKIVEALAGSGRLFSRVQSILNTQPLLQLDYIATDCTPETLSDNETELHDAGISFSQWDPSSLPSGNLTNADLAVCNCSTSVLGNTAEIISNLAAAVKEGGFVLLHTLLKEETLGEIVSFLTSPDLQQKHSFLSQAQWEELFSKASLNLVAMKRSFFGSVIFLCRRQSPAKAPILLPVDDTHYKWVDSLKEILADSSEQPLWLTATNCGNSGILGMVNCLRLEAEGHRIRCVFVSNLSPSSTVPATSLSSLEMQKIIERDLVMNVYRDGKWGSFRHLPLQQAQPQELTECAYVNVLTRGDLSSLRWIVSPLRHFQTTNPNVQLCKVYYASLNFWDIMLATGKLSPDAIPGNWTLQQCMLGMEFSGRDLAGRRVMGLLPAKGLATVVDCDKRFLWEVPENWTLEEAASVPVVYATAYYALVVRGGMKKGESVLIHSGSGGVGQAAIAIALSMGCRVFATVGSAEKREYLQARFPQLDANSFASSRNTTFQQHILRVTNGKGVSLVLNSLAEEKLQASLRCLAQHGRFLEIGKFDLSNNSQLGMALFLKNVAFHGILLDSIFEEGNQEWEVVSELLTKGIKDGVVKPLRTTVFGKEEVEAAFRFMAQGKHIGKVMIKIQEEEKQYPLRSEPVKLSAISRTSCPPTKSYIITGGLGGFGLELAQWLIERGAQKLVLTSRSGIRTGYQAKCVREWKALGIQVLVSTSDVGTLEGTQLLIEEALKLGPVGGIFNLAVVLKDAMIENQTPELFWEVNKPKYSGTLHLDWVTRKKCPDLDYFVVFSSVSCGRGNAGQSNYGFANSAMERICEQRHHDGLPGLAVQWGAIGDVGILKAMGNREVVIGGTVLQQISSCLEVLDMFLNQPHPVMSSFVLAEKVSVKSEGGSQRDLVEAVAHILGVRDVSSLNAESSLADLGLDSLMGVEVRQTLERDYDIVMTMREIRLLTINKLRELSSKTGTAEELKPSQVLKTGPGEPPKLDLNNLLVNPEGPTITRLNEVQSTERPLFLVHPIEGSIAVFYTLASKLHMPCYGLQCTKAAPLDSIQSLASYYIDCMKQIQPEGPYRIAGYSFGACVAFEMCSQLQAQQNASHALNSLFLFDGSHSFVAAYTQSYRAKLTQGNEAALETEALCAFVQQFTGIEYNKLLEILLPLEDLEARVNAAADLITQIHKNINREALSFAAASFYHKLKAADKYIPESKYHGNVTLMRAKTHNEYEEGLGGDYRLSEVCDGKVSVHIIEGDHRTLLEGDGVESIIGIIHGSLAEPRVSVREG

In the case of `CC/C=C\C/C=C\C/C=C\CCCCCCCC(=O)OC[C@H](CO[C@@H]1O[C@H](CO[C@H]2O[C@H](CO)[C@H](O)[C@H](O)[C@H]2O)[C@H](O)[C@H](O)[C@H]1O)OC(=O)CCCCCCCCCCCCCCCCC`, the pIC50 at Fatty acid synthase was 4.81.
The molecule `CCCCCCCCCCCCCCCCCCOCC(COC(=O)NCCCO[C@@H]1O[C@H](CO)[C@H](O)[C@H](O)[C@H]1O)OCC` (stereo partly specified) gave a pIC50 in the assay with K562 of 4.77.
On to `CO[C@@H]1[C@@H](OC(N)=O)[C@@H](OC)[C@H](O[C@@H]2C[C@H]3O[C@@](O)(C2)[C@H](C)C(=O)O[C@@H](/C=C/C=C/Br)C/C(C)=C/C(=O)C3(C)C)O[C@H]1C`, for which the IC50 in the assay on HeLa S3 worked out at 1.2 µg/mL (≈ 1.78 µM).
In the case of `CC/C=C\C/C=C\C/C=C\CCCCCCCC(=O)OC[C@H](CO[C@@H]1O[C@H](CO[C@H]2O[C@H](CO)[C@H](O)[C@H](O)[C@H]2O)[C@H](O)[C@H](O)[C@H]1O)OC(=O)CCCCCCCCCCCCCCCCCCC`, the negative-log IC50 (pIC50) on Fatty acid synthase was 4.81.
On the same count and under the same terms, the same measure for `CC/C=C\C/C=C\C/C=C\CCCCCCCC(=O)O[C@H](COC(=O)CCCCCCCCCCCCCCC)CO[C@@H]1O[C@H](CO[C@H]2O[C@H](CO)[C@H](O)[C@H](O)[C@H]2O)[C@H](O)[C@H](O)[C@H]1O`: 4.81.
`CCCCCCCCCCCCC(=O)OCc1cn(C[C@H]2O[C@H](OC)[C@H](O)[C@@H](O)[C@@H]2O)nn1` gave a pIC50 with A549 of 4.68.
For `CCCCCCCCCCCCCCCCCCCC(=O)O[C@H](COC(=O)CCCCCCCCCCCCCCC)CO[C@@H]1O[C@H](CO[C@H]2O[C@H](CO)[C@H](O)[C@H](O)[C@H]2O)[C@H](O)[C@H](O)[C@H]1O`, the pIC50 on Fatty acid synthase is 4.81.
With `CCCCCCCCCCCCC(=O)OCc1cn(C[C@H]2O[C@H](OC)[C@H](O)[C@@H](O)[C@H]2O)nn1`, the pIC50 in the assay on A549 is 4.68.
Consider `CO[C@@H]1[C@@H](O)[C@@H](OC)[C@H](O[C@@H]2[C@@H](OC)[C@H](C)O[C@@H](O[C@@H]3C[C@H]4O[C@@](O)(C3)[C@H](C)C(=O)O[C@@H](/C=C/C=C/Br)C/C(C)=C/C(=O)C4(C)C)[C@@H]2OC)O[C@H]1C`, for which, in the assay with HeLa S3, the IC50 amounted to 0.17 µg/mL (≈ 0.211 µM).
As to `CCCCCCCCCCCCCC(=O)OCc1cn(C[C@H]2O[C@H](OC)[C@H](O)[C@@H](O)[C@H]2O)nn1`, the pIC50 in the assay with A549 was 4.68.
In turn, `CCCCCCCCCCCCCCCCCCOCC(COC(=O)NCCCO[C@@H]1O[C@H](CO)[C@@H](O[C@@H]2O[C@H](CO)[C@H](O)[C@H](O)[C@H]2O)[C@H](O)[C@H]1O)OCC` (stereo partly specified) gave a negative-log IC50 (pIC50) in the assay on K562 of 5.15.
As for `CCCCCCCCCCCCCCCCOC[C@H](CN)O[C@@H]1O[C@@H](C)[C@H](O)[C@@H](O)[C@H]1O`, the half-maximal cytotoxic concentration (CC50) was determined as 8.2 µM in the assay on DU-145, 5.5 µM with JIMT-1, 8.5 µM in the assay with MIA PaCa-2 and 11 µM with PC-3.
Regarding `CCCCCCCCCCCCCC(=O)OCc1cn(C[C@H]2O[C@H](OC)[C@H](O)[C@@H](O)[C@@H]2O)nn1`, in the assay with A549, the pIC50 is 4.68.
In the assay on A549, `CCCCCCCCCCCC(=O)OCc1cn(C[C@H]2O[C@H](OC)[C@H](O)[C@@H](O)[C@H]2O)nn1` showed a pIC50 of 4.68.
Turning to `CCCCCCCCCCCCCCCCCCC/C=C/C(=O)OC[C@H](CO[C@@H]1O[C@H](CO[C@H]2O[C@H](CO)[C@H](O)[C@H](O)[C@H]2O)[C@H](O)[C@H](O)[C@H]1O)OC(=O)CCCCCCCCCCCCCCCCCCC`, the pIC50 at Fatty acid synthase is 4.81.
As for `CCCCCCCCCCCCCCCCOC[C@H](CO[C@@H]1O[C@@H](CO)[C@H](O)[C@@H](O)[C@@H]1O)OC`, the CC50 with DU-145 is 12.5 µM; in the assay with JIMT-1 it was 6.5 µM; in the assay on MIA PaCa-2, 7.5 µM; in the assay on PC-3, 12.5 µM; with BT-474, 11 µM.
`CCCCCCCCCCCC(=O)OCc1cn(C[C@H]2O[C@H](OC)[C@H](O)[C@@H](O)[C@@H]2O)nn1`: the pIC50 in the assay on A549 is 4.68.
`CCCCCCCCCCCCCCCCCCOCC(COC(=O)NCCCO[C@H]1O[C@H](CO)[C@@H](O)[C@H](O)[C@@H]1O)OCC` (stereo partly specified) gave a pIC50 in the assay with K562 of 4.74.
Same read-out and setting: for `CCCCCCCCCCCCCCCCCCOCC(CO[C@@H]1O[C@H](CO)[C@@H](O[C@@H]2O[C@H](CO)[C@H](O)[C@H](O)[C@H]2O)[C@H](O)[C@H]1O)OCC` (stereo partly specified) the value was 4.74.

Values taken from ChEMBL document CHEMBL5260828, “Amphiphilic glycoconjugates as potential anti-cancer chemotherapeutics” (Eur J Med Chem, 2018).
